Results from US20220017871A1, “UNDIFFERENTIATED STATE-MAINTAINING CULTURE MEDIUM FOR PLURIPOTENT STEM CELLS” (Kanto Kagaku Kabushiki Kaisha, priority 2018, published 2022).

What was measured:
[1] = test system: iPS cells; test: Measurement of intracellular ROS (DCFH-DA staining, flow cytometer); assay type: cell-based, human; settings: versus medium with no additive (100%)
Experimental: In each of the basal medium with no additive and the albumin-added medium, cells were dispersed into single-cells, and after 1 hours, for each case, cells were fluorescently stained with DCFH-DA, and fluorescence intensity was measured using a flow cytometer.
Cells were cultured in the control media or in the medium to which the respective component had been added, then dispersed into single-cells. For each case, cells were fluorescently stained with DCFH-DA, and the fluorescence intensity was measured using a flow cytometer.

[2] = test system: Human iPS cell line 253G1; test: Confirmation of cell morphology by phase-contrast microscopy; assay type: cell-based; settings: third day of culturing; additive in basal medium (albumin 1 g/100 mL; NAC 8.2 mg/100 mL); spindle = good condition, globular = bad
Experimental: (§1) Human iPS cell line 253G1 was washed with PBS, then treated with an equivalent mixture solution of TrypLE Select (ThermoScientific) and 0.5 mM EDTA at 37° C. for 5 minutes to be dispersed into single-cells, and collected.
The morphology of cells on the third day of culturing in the basal medium with no additive and in the albumin-added medium was observed by phase-contrast microscopy.
The morphology of cells on the third day of culturing in the control medium and in the N-acetyl-L-cysteine-added medium as a representative of 5 types of antioxidants was observed by phase-contrast microscopy.

[3] = test system: Human iPS cell line 253G1; test: Comparison of proliferating rate in media with each added component; assay type: cell-based; settings: 7 days culture; NAC 8.2 mg and/or PVA 0.25 g per 100 mL basal medium; basal medium only = 1; n=3
Experimental: To 100 mL of the basal medium, either only 8.2 mg of N-acetyl-L-cysteine was added, only 0.25 g of polyvinyl alcohol was added, or 8.2 mg of N-acetyl-L-cysteine and 0.25 g of polyvinyl alcohol were added.
as §1
The culture was carried out in the basal medium with no additive prepared as a control, and in a medium to which only N-acetyl-L-cysteine was added, in a medium to which only polyvinyl alcohol was added, or in a medium to which N-acetyl-L-cysteine and polyvinyl alcohol were added (n=3).

[4] = test system: Human iPS cell line 253G1; test: Confirming cell attachment (crystal violet staining); assay type: cell-based; settings: 7 days culture; 0.25 g polymer or 1 g albumin per 100 mL basal medium; iMatrix-511 coated 6-well plate; n=3
Experimental: as §1
The culture was carried out in the basal medium with no additive and an albumin-added medium prepared as controls, and in a medium to which polyvinyl alcohol and in a medium to which polyvinylpyrrolidone was added (n=3).
Each of the cultured cell was stained with crystal violet and the adherence of the cells was confirmed under phase-contrast microscopy.

[5] = Example 1, antioxidant added to 100 mL basal medium (NAC 163 mg, GSH 307 mg)

## N[C@@H](CCC(=O)N[C@@H](CS)C(=O)NCC(=O)O)C(=O)O [reduced glutathione]
[1]; [5]
  decrease in intracellular ROS level: approximately 50%

## CC(=O)N[C@@H](CS)C(=O)O [N-acetyl-L-cysteine]
[2]
  cell morphology: spindle shape
[3]
  increase in relative proliferating rate: approximately 1.4 fold
[1]; [5]
  decrease in intracellular ROS level: approximately 50%

## albumin
[2]
  cell morphology: spindle shape
[4]
  adherence of cells to culture container: stained cells were confirmed all over the culture container
[1]; Comparative Example 1, 1 g albumin per 100 mL basal medium, 1 hour after dispersion into single cells
  decrease in intracellular ROS level: approximately 60%
